Reference: BindingDB's records for doi:10.1021/jm050965z (Millennium Pharmaceuticals, 2006)

Experiment: Inhibition of I309-induced chemotaxis in L1.2 cells expressing CCR8

Row | SMILES | IC50 [nM]
1 | O=C(NC1CCN(Cc2cccc(Oc3ccccc3Cl)c2)CC1)C1(c2ccccc2)CCNC1 (racemic) [(+/-) 3-phenyl-pyrrolidine-3-carboxylic acid {1-[3-(2-chloro-phenoxy)-benzyl]-piperidin-4-yl}-amide] | 22
2 | CCN1CCC(C(=O)NC2CCN(Cc3cccc(Oc4ccccc4Cl)c3)CC2)(c2ccccc2)CC1 [1-ethyl-4-phenyl-piperidine-4-carboxylic acid {1-[3-(2-chloro-phenoxy)-benzyl]-piperidin-4-yl}-amide] | 43
3 | CCN1CCC(C(=O)NC2CCN(Cc3cccc(Oc4ccccc4OC)c3)CC2)(c2ccccc2)CC1 [1-ethyl-4-phenyl-piperidine-4-carboxylic acid {1-[3-(2-methoxy-phenoxy)-benzyl]-piperidin-4-yl}-amide] | 56
4 | CC(C)(C(=O)O)N1CCC(C(=O)NC2CCN(Cc3cccc(Oc4ccccc4Cl)c3)CC2)(c2ccccc2)C1 (configuration not stated) [2-(3-((1-(3-(2-chlorophenoxy)benzyl)piperidin-4-yl)carbamoyl)-3-phenylpyrrolidin-1-yl)-2-methylpropanoic acid] | 1
5 | CC(C)(C(=O)O)N1CCC(C(=O)NC2CCN(Cc3cccc(Oc4ccccc4Cl)c3)CC2)(c2ccccc2)CC1 [2-(4-{1-[3-(2-chloro-phenoxy)-benzyl]-piperidin-4-ylcarbamoyl}-4-phenyl-piperidin-1-yl)-2-methyl-propionic acid] | 4
6 | COc1ccccc1Oc1cccc(CN2CCC(NC(=O)C3(c4ccccc4)CCNCC3)CC2)c1 [4-phenyl-piperidine-4-carboxylic acid {1-[3-(2-methoxy-phenoxy)-benzyl]-piperidin-4-yl}-amide] | 11
7 | COc1ccccc1Oc1cccc(CN2CCC(NC(=O)Cc3ccccc3)CC2)c1 [N-{1-[3-(2-methoxy-phenoxy)-benzyl]-piperidin-4-yl}-2-phenyl-acetamide] | 55
